Reference: US20120058989A1, “ANTIBACTERIAL FLUOROQUINOLONE ANALOGS” (Achaogen, Inc., priority 2008, published 2012)
In brackets after ≈: the same amount, converted by molar mass.

Legend:
Assay in all cases: MIC, CLSI broth microdilution
Assay type in all cases: cell-based
[1] = test system: E. coli AECO001 (Fluoroquinolone susceptible, ATCC25922); conditions: Table 2, 35° C., 20 hours; for MIC: Escherichia coli, read-out: MIC AECO 001
Description: (§1) Minimum inhibitory concentrations (MIC) were determined by reference Clinical and Laboratory Standards Institute (CLSI) broth microdilution methods per M7-A7 [2006]. Quality control ranges utilizing E. coli ATCC 25922, P. aeruginosa ATCC 27853 and S. aureus ATCC 29213, and interpretive criteria for comparator agents were as published in CLSI M100-S17 [2007]. Briefly, serial two-fold dilutions of the test compounds were prepared at 2× concentration in Mueller Hinton Broth. The compound dilutions were mixed in 96-well assay plates in a 1:1 ratio with bacterial inoculum. The inoculum was prepared by suspension of a colony from an agar plate that was prepared the previous day. Bacteria were suspended in sterile saline and added to each assay plate to obtain a final concentration of 5×10^5 CFU/mL. The plates were incubated at 35° C. for 20 hours in ambient air.

[2] = test system: S. pneumoniae ASPN1027 (Fluoroquinolone-resistant); conditions: for MIC ASPN 1027: Table 2
Description: as §1

[3] = test system: S. aureus ASAU001 (Fluoroquinolone-susceptible, ATCC29213); conditions: for MIC ASAU 001: Table 2; for MIC: Staphylococcus aureus, Table 2, read-out: MIC ASAU 001
Description: as §1

[4] = test system: E. coli AECO066 (Fluoroquinolone-resistant); conditions: for MIC AECO 066: Table 2; for MIC: Escherichia coli, Table 2, read-out: MIC AECO 066
Description: as §1

[5] = test system: A. baumannii AABA1065 (Fluoroquinolone-susceptible); conditions: for MIC AABA 1065: Table 2; for MIC: Acinetobacter baumannii, Table 2, read-out: MIC AABA 1065
Description: as §1

[6] = test system: P. aeruginosa APAE054 (Fluoroquinolone-resistant); conditions: for MIC APAE 054: Table 2
Description: as §1

[7] = test system: S. pneumoniae ASPN001 (Fluoroquinolone-susceptible, ATCC49619); conditions: for MIC ASPN 001: Table 2
Description: as §1

[8] = test system: P. aeruginosa APAE001 (Fluoroquinolone-susceptible, ATCC27853); conditions: for MIC APAE 001: Table 2; for MIC: Pseudomonas aeruginosa, Table 2, read-out: MIC APAE 001
Description: as §1

[9] = test system: S. aureus ASAU1031 (Fluoroquinolone-resistant); conditions: for MIC ASAU 1031: Table 2
Description: as §1

[10] = test system: A. baumannii AABA1009 (Fluoroquinolone-resistant); conditions: for MIC AABA 1009: Table 2
Description: as §1

Compound | MIC AECO 001 [1] | MIC ASPN 1027 [2] | MIC ASAU 001 [3] | MIC AECO 066 [4] | MIC AABA 1065 [5] | MIC APAE 054 [6] | MIC ASPN 001 [7] | MIC APAE 001 [8] | MIC ASAU 1031 [9] | MIC AABA 1009 [10] | MIC [1] | MIC ([2]; Streptococcus pneumoniae, Table 2, read-out: MIC ASPN 1027) | MIC [3] | MIC [4] | MIC [5] | MIC ([6]; Pseudomonas aeruginosa, Table 2, read-out: MIC APAE 054) | MIC ([7]; Streptococcus pneumoniae, Table 2, read-out: MIC ASPN 001) | MIC [8] | MIC ([9]; Staphylococcus aureus, Table 2, read-out: MIC ASAU 1031) | MIC ([10]; Acinetobacter baumannii, Table 2, read-out: MIC AABA 1009)
CCNC1CC2CCCc3c(c(F)cc4c(=O)c(C(=O)O)cn(C5CC5)c34)N2C1.O=C(O)C(F)(F)F (mixture of isomers) [7B/20, (9S)-4-cyclopropyl-9-(ethylamino)-12-fluoro-1-oxo-4,5,6,7,7a,8,9,10-octahydro-1H-pyrrolo[1′,2′:1,7]-azepino[2,3-h]quinoline-2-carboxylic acid trifluoroacetate] | A (MIC's of 1.0 μg/mL or less = A) | C (MIC's of greater than 8.0 μg/mL = C) | A (MIC's of 1.0 μg/mL or less = A) | C (MIC's of greater than 8.0 μg/mL = C) | A (MIC's of 1.0 μg/mL or less = A) | C (MIC's of greater than 8.0 μg/mL = C) | A (MIC's of 1.0 μg/mL or less = A) | B (MIC's of greater than 1.0 μg/mL to 8.0 μg/mL = B) | B (MIC's of greater than 1.0 μg/mL to 8.0 μg/mL = B) | C (MIC's of greater than 8.0 μg/mL = C) | – | – | – | – | – | – | – | – | – | –
NCC1CCN2c3c(F)cc4c(=O)c(C(=O)O)cn(C5CC5)c4c3C=CCC12.O=C(O)C(F)(F)F (racemic) [24/rac-16, (7aS*,8S*)-8-(Aminomethyl)-4-cyclopropyl-12-fluoro-1-oxo-4,7,7a,8,9,10-hexahydro-1H-pyrrolo[1′,2′:1,7]aze-pino-[2,3-h]quinoline-2-carboxylic acid trifluoroacetate] | A (MIC's of 1.0 μg/mL or less = A) | B (MIC's of greater than 1.0 μg/mL to 8.0 μg/mL = B) | A (MIC's of 1.0 μg/mL or less = A) | C (MIC's of greater than 8.0 μg/mL = C) | A (MIC's of 1.0 μg/mL or less = A) | C (MIC's of greater than 8.0 μg/mL = C) | A (MIC's of 1.0 μg/mL or less = A) | B (MIC's of greater than 1.0 μg/mL to 8.0 μg/mL = B) | B (MIC's of greater than 1.0 μg/mL to 8.0 μg/mL = B) | C (MIC's of greater than 8.0 μg/mL = C) | – | – | – | – | – | – | – | – | – | –
NCC1CCN2c3c(F)cc4c(=O)c(C(=O)O)cn(C5CC5)c4c3CCCC12.O=C(O)C(F)(F)F (racemic) [24/rac-17, (7aS*,8S*)-8-(Aminomethyl)-4-cyclopropyl-12-fluoro-1-oxo-4,5,6,7,7a,8,9,10-octahydro-1H-pyrrolo[1′,2′:1,7]-azepino[2,3-h]quinoline-2-carboxylic acid trifluoroacetate] | A (MIC's of 1.0 μg/mL or less = A) | B (MIC's of greater than 1.0 μg/mL to 8.0 μg/mL = B) | A (MIC's of 1.0 μg/mL or less = A) | C (MIC's of greater than 8.0 μg/mL = C) | A (MIC's of 1.0 μg/mL or less = A) | C (MIC's of greater than 8.0 μg/mL = C) | A (MIC's of 1.0 μg/mL or less = A) | B (MIC's of greater than 1.0 μg/mL to 8.0 μg/mL = B) | B (MIC's of greater than 1.0 μg/mL to 8.0 μg/mL = B) | C (MIC's of greater than 8.0 μg/mL = C) | – | – | – | – | – | – | – | – | – | –
O=C(O)c1cn(C2CC2)c2c3c(c(F)cc2c1=O)N1CCC[C@H]1CCC3 [1/10] | – | – | – | – | – | – | – | – | – | – | ≤ 1 µg/mL | > 8 µg/mL | ≤ 1 µg/mL | > 8 µg/mL | 1 to 8 µg/mL (≈ 2.81 to 22.4 µM) | > 8 µg/mL | ≤ 1 µg/mL | > 8 µg/mL | 1 to 8 µg/mL (≈ 2.81 to 22.4 µM) | > 8 µg/mL
N[C@H]1C[C@H]2CN=Cc3c(c(F)cc4c(=O)c(C(=O)O)cn(C5CC5)c34)N2C1.O=C(O)C(F)(F)F [5/10, (3aS,5S)-5-amino-13-cyclopropyl-8-fluoro-10-oxo-3a,4,5,6,10,13-hexahydro-3H-pyrrolo[2′,′:3,4][1,4]diazepino[5,6-h]quinoline-11-carboxylic acid trifluoroacetate] | A (MIC's of 1.0 μg/mL or less = A) | C (MIC's of greater than 8.0 μg/mL = C) | B (MIC's of greater than 1.0 μg/mL to 8.0 μg/mL = B) | C (MIC's of greater than 8.0 μg/mL = C) | B (MIC's of greater than 1.0 μg/mL to 8.0 μg/mL = B) | C (MIC's of greater than 8.0 μg/mL = C) | B (MIC's of greater than 1.0 μg/mL to 8.0 μg/mL = B) | B (MIC's of greater than 1.0 μg/mL to 8.0 μg/mL = B) | C (MIC's of greater than 8.0 μg/mL = C) | C (MIC's of greater than 8.0 μg/mL = C) | – | – | – | – | – | – | – | – | – | –
N[C@H]1C[C@H]2CNCc3c(c(F)cc4c(=O)c(C(=O)O)cn(C5CC5)c34)N2C1.O=C(O)C(F)(F)F.O=C(O)C(F)(F)F [5/11, (3aS,5S)-5-amino-13-cyclopropyl-8-fluoro-10-oxo-2,3,3a,4,5,6,10,13-octahydro-1H-pyrrolo[2′,1′:3,4][1,4]diazepino[5,6-h]quinoline-11-carboxylic acid bis(trifluoroacetate)] | A (MIC's of 1.0 μg/mL or less = A) | C (MIC's of greater than 8.0 μg/mL = C) | B (MIC's of greater than 1.0 μg/mL to 8.0 μg/mL = B) | C (MIC's of greater than 8.0 μg/mL = C) | B (MIC's of greater than 1.0 μg/mL to 8.0 μg/mL = B) | C (MIC's of greater than 8.0 μg/mL = C) | B (MIC's of greater than 1.0 μg/mL to 8.0 μg/mL = B) | B (MIC's of greater than 1.0 μg/mL to 8.0 μg/mL = B) | C (MIC's of greater than 8.0 μg/mL = C) | C (MIC's of greater than 8.0 μg/mL = C) | – | – | – | – | – | – | – | – | – | –
NC1CCN2c3c(F)cc4c(=O)c(C(=O)O)cn(C5CC5)c4c3COCC12.O=C(O)C(F)(F)F [6/7, (3aS,4R)-4-amino-13-cyclopropyl-8-fluoro-10-oxo-3a,4,5,6,10,13-hexahydro-1H,3H-pyrrolo[2′,1′:3,4][1,4]oxazepino[5,6-h]quinoline-1′-carboxylic acid trifluoroacetate] | A (MIC's of 1.0 μg/mL or less = A) | A (MIC's of 1.0 μg/mL or less = A) | A (MIC's of 1.0 μg/mL or less = A) | B (MIC's of greater than 1.0 μg/mL to 8.0 μg/mL = B) | A (MIC's of 1.0 μg/mL or less = A) | C (MIC's of greater than 8.0 μg/mL = C) | A (MIC's of 1.0 μg/mL or less = A) | A (MIC's of 1.0 μg/mL or less = A) | B (MIC's of greater than 1.0 μg/mL to 8.0 μg/mL = B) | B (MIC's of greater than 1.0 μg/mL to 8.0 μg/mL = B) | – | – | – | – | – | – | – | – | – | –
N[C@H]1C[C@H]2CCCc3c(c(F)cc4c(=O)c(C(=O)O)cn(C5CC5)c34)N2C1.O=C(O)C(F)(F)F [7B/17, (7aR,9S)-9-Amino-4-cyclopropyl-12-fluoro-1-oxo-4,5,6,7,7a,8,9,10-octahydro-1H-pyrrolo[1′,′:1,7]-azepino[2,3-h]quinoline-2-carboxylic acid trifluoroacetate] | A (MIC's of 1.0 μg/mL or less = A) | B (MIC's of greater than 1.0 μg/mL to 8.0 μg/mL = B) | A (MIC's of 1.0 μg/mL or less = A) | B (MIC's of greater than 1.0 μg/mL to 8.0 μg/mL = B) | A (MIC's of 1.0 μg/mL or less = A) | C (MIC's of greater than 8.0 μg/mL = C) | A (MIC's of 1.0 μg/mL or less = A) | B (MIC's of greater than 1.0 μg/mL to 8.0 μg/mL = B) | B (MIC's of greater than 1.0 μg/mL to 8.0 μg/mL = B) | C (MIC's of greater than 8.0 μg/mL = C) | – | – | – | – | – | – | – | – | – | –
O=C1CC2CCCN2c2c(F)cc3c(=O)c(C(=O)O)cn(C4CC4)c3c2N1 (stereo not drawn) [32/3] | – | – | – | – | – | – | – | – | – | – | > 8 µg/mL | – | > 8 µg/mL | > 8 µg/mL | > 8 µg/mL | – | – | > 8 µg/mL | – | –
O=C(O)c1cn(C2CC2)c2c3c(c(F)cc2c1=O)N1CCCC1CO3 (stereo not drawn) [Comparative Compound 1, reference compound] | – | – | – | – | – | – | – | – | – | – | > 8 µg/mL | – | 1 to 8 µg/mL (≈ 2.9 to 23.2 µM) | > 8 µg/mL | > 8 µg/mL | – | – | > 8 µg/mL | – | –
